Results reported in ChEMBL document CHEMBL1129582, “Lipophilic, acid-stable, adenosine deaminase-activated anti-HIV prodrugs for central nervous system delivery. 3. 6-Amino prodrugs of 2'-beta-fluoro-2',3'-dideoxyinosine” (J Med Chem, 1996).

Tests used:
[1] = Anti-HIV activity by using phytohemagglutininin-stimulated peripheral blood mononuclear cell(PHA/PBM) test system; format: functional; conditions: Homo sapiens
[2] = Partition coefficient (logP); format: physicochemical; conditions: octanol/water

Structure (SMILES) | IC50 [1] | logP [2]
CONc1ncnc2c1ncn2C1OC(CO)CC1F (centres undefined) | > 80 µM | -0.414
CN(C)c1ncnc2c1ncn2C1OC(CO)CC1F (centres undefined) | 18 µM | 0.797
CNc1ncnc2c1ncn2C1OC(CO)CC1F (centres undefined) | 13.1 µM | 
OCC1CC(F)C(n2cnc3c(NOCc4ccccc4)ncnc32)O1 (centres undefined) | > 80 µM | 1.25
NNc1ncnc2c1ncn2C1OC(CO)CC1F (centres undefined) | 36.3 µM | 
OCC1CC(F)C(n2cnc3c(F)ncnc32)O1 (centres undefined) | > 5 µM | 

Other lines, results leading:

IC50 [1] | logP [2] | Structure (SMILES)
6.3 µM |  | OCC1CC(F)C(n2cnc3c(O)ncnc32)O1 (centres undefined)
3.3 µM |  | Nc1ncnc2c1ncn2[C@@H]1O[C@H](CO)C[C@@H]1F [LODENOSINE]
5.9 µM |  | OCC1CC(F)C(n2cnc3c(Cl)ncnc32)O1 (centres undefined)
11.1 µM | 0.779 | CCNc1ncnc2c1ncn2C1OC(CO)CC1F (centres undefined)
0.3 µM |  | O=c1[nH]cnc2c1ncn2[C@H]1CC[C@@H](CO)O1 [DIDANOSINE]
9.6 µM | -0.395 | O=[N+]([O-])c1ncnc2c1ncn2C1OC(CO)CC1F (centres undefined)
6.8 µM | -0.983 | OCC1CC(F)C(n2cnc3c(NO)ncnc32)O1 (centres undefined)
